US9101640B2, “Use of Danshensu, Notoginsenoside R1 or their combination in preparation of medicaments for preventing and treating diseases caused by microcirculation disorder” (Tasly Pharmaceutical Group Co., Ltd., priority 2009, dated 2015)
Entries after “also recorded” stand apart in the source; their conditions may differ.

How the values were obtained:
mesenteric venules = assay: Diameters of mesenteric venules after I/R; format: in vivo; settings: rat mesenteric I/R
Description: The rats were anesthetized by intraperitoneal injection of pentobarbital sodium (30 mg/kg body weight (BW)). PE venous cannulas (#3) were cannulated into the right jugular of the rats and detained. The abdomen of each rat was incised in a length of 20-30 mm along the midline. The ileum near the ileocecal junctions was gently taken out and unfolded onto the object stage mounted with glass slides. The unfolded mesenteries were continuously dripped with Krebs-Ringer buffering solution at 37° C. The microcirculatory dynamics of the mesenteries was observed under white light (12V, 100 W) using an inverted biomicroscope (Diaphot TMD-2S, Nikon, Tokyo) placed in the thermostat at 37° C. Observation sites were selected under 20× object lens, and a video recording system with a time-displaying function was used to record what had been observed on S-VHS tape and preserved. […] Normal saline was administrated at 20 min before ischemia until the end of the observation by continuously intravenous drip via jugular at a dosage of 5 mg/kg/h. PE cannulas were used to ligate non-circulatory mesenteric arteries and veins, so as to observe the arteries and veins for 10 min, and then the ligation was lifted. Time was adjusted to zero and the microcirculatory dynamics under the same visual field was continuously observed for 60 min. DLA was administrated at 20 min before ischemia until the end of the observation by continuously intravenous drip via jugular at a dosage of 5 mg/kg/h. R1 was administrated at 20 min before ischemia until the end of the observation by continuously intravenous drip via jugular at a dosage of 5 mg/kg/h. The combination of DLA and R1 in a weight ratio of 4:1 was administrated at 20 min before ischemia until the end of the observation by continuously intravenous drip via jugular at a dosage of 5 mg/kg/h. The combination of DLA and R1 in a weight ratio of 1:1 was administrated at 20 min before ischemia until the end of the observation by continuously intravenous drip via jugular at a dosage of 5 mg/kg/h. […] Wherein, 6 rats in each group were taken out, these rats were used for observing the following aspects: the venular diameters; leukocytes rolling, adhesion, and emigration and DHR fluorescence intensities of the venular walls. […] Microcirculatory dynamics was continuously recorded using an inverted biomicroscope […] recording system (CC-090, Flovel, Tokyo) and SIT fluorescent camera (C-2400-08, Hamamatsu Photonics, Hamamatsu). 3 sites of the mesenteric venules were measured using Image-Pro Plus 5.0 software from the replayed CD records at the following time points: before ischemia and 1 min, 10 min, 20 min, 30 min, 40 min, 50 min and 60 min after the beginning of the reperfusion. The average diameters were calculated.

[1] = system: mast cells in the mesenteric interstitial substance; assay: Percentage of mast cells degranulation after I/R (toluidine blue); format: in vivo; settings: 60 min of reperfusion, rat
[2] = post-administration, 5 mg/kg/h continuous i.v. drip from 20 min after ischemia (DLA: 10 min after I/R)
[3] = pre-administration, 5 mg/kg/h continuous i.v. drip from 20 min before ischemia

| Compound | effect on the diameters of the mesenteric venules after reperfusion (mesenteric venules; post-administration, 5 mg/kg/h continuous i.v. drip from 20 min after ischemia (DLA: 10 min after I/R), 5 mg/kg) | effect on the diameters of the mesenteric venules after reperfusion (mesenteric venules; pre-administration, 5 mg/kg/h continuous i.v. drip from 20 min before ischemia, 60 min reperfusion, 5 mg/kg) | inhibition of the increase in the percentage of mast cells degranulation caused by I/R [1, 2] | inhibition of the increase in the percentage of mast cells degranulation caused by I/R [1, 3] | effect on the diameters of the mesenteric venules after reperfusion (mesenteric venules; [2]) | effect on the diameters of the mesenteric venules after reperfusion (mesenteric venules; pre-administration, 5 mg/kg/h continuous i.v. drip from 20 min before ischemia, 60 min reperfusion) |
| --- | --- | --- | --- | --- | --- | --- |
| CC(C)=CCC[C@](C)(O[C@@H]1O[C@H](CO)[C@@H](O)[C@H](O)[C@H]1O)[C@H]1CC[C@]2(C)[C@@H]1[C@H](O)C[C@@H]1[C@@]3(C)CC[C@H](O)C(C)(C)[C@@H]3[C@@H](O[C@@H]3O[C@H](CO)[C@@H](O)[C@H](O)[C@H]3O[C@@H]3OC[C@@H](O)[C@H](O)[C@H]3O)C[C@]12C [R1, Notoginsenoside R1] | did not cause the significant changes; also recorded: have no significant inhibitory effects | did not cause the significant changes; also recorded: have no significant inhibitory effects | can significantly inhibit | can significantly inhibit |  |  |
| O=C(O)C(O)Cc1ccc(O)c(O)c1 (centres unmarked) [DLA, 3,4-dihydroxyphenyl lactic acid] |  |  | had no significant inhibitory effects; also recorded: without the significant inhibition | can significantly inhibit | did not cause the significant changes | did not cause the significant changes |
